Source: ChEMBL document CHEMBL5370624 (J Med Chem, 2023)
Activity calls are given as the source filed them. No cut-off for these calls is given here.

How the values were obtained:
[1] = Aqueous stability of the compound assessed as drug degradation at 2 to 8 degreeC and measured upto 12 months by LC-MS analysis; assay type: physicochemical; details: buffer, 8760 h
Toll-like receptor 4 [2] = target: T1, Toll-like receptor 4 (Homo sapiens, UniProt O00206); assay: Agonist activity at human TLR4 in human HEK-Blue hTLR4 cells assessed as NF-kappaB activation incubated for 48 hrs by SEAP reporter gene based Quanti-blue assay; assay type: cell-based
T1 sequence (O00206 whole entry): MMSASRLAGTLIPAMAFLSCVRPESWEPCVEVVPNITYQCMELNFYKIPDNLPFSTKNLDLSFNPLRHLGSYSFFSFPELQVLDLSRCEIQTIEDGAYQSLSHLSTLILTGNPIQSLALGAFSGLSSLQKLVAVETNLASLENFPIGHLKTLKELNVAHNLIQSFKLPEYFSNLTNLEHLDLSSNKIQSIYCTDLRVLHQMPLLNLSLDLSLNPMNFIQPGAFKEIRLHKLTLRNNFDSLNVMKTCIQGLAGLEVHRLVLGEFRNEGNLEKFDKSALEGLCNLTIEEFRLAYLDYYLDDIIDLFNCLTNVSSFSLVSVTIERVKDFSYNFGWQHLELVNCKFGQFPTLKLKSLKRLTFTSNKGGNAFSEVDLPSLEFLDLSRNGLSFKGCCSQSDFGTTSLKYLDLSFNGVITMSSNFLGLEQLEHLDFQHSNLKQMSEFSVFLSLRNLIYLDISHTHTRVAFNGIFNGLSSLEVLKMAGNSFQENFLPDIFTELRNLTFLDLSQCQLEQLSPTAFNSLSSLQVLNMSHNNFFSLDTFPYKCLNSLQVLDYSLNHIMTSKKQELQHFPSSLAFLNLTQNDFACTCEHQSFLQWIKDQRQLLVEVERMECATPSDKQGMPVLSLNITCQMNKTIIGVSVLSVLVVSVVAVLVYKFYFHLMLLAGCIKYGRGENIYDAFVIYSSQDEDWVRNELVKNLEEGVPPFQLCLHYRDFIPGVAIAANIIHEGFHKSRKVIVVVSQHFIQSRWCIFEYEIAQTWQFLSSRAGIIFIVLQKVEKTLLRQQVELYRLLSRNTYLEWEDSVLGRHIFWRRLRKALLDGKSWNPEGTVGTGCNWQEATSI

Toll-like receptor 4 [3] = target: T2, Toll-like receptor 4 (Mus musculus, UniProt Q9QUK6); assay: Agonist activity at mouse TLR4 in human HEK-Blue mTLR4 cells assessed as NF-kappaB activation incubated for 48 hrs by SEAP reporter gene based Quanti-blue assay; assay type: cell-based
T2 sequence (Q9QUK6 whole entry): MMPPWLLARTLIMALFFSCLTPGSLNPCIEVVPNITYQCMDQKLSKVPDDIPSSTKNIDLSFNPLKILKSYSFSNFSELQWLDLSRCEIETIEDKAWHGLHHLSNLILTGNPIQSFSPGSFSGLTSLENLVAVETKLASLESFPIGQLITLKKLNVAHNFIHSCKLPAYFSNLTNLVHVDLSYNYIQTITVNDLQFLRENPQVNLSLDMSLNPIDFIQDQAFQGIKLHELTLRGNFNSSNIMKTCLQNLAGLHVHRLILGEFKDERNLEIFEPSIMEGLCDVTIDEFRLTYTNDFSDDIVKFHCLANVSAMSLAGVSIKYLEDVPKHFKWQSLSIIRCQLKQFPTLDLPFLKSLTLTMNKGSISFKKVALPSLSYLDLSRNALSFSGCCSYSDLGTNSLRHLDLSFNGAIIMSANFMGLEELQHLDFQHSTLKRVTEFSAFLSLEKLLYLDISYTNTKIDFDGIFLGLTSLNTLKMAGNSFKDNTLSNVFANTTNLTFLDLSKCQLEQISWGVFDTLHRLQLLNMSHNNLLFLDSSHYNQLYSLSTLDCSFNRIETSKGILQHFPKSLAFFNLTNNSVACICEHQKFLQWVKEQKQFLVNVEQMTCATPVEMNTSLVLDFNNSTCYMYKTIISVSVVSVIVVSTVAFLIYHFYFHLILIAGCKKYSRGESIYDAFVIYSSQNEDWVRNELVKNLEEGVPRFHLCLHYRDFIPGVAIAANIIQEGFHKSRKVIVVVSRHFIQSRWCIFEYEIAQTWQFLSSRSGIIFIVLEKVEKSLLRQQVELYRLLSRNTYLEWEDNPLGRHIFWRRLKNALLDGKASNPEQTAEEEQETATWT

[4] = Aqueous stability of the compound assessed as drug degradation at 40 degreeC and measured upto 12 months by LC-MS analysis; assay type: physicochemical
Toll-like receptor 4 [5] = target: T1, Toll-like receptor 4; assay: Agonist activity at TLR4 in human MONO-MAC-6 cells assessed as induction of MIP-1beta release incubated for 24 hrs by ELISA; assay type: cell-based
Toll-like receptor 4 [6] = target: T1, Toll-like receptor 4; assay: Agonist activity at TLR4 in human PBMC cells assessed as induction of RANTES release incubated for 20 hrs by ELISA; assay type: cell-based
Toll-like receptor 4 [7] = target: T2, Toll-like receptor 4; assay: Agonist activity at TLR4 in mouse RAW264.7 cells assessed as induction of MIP-1beta release incubated for 24 hrs by ELISA; assay type: cell-based
Toll-like receptor 4 [8] = target: T1, Toll-like receptor 4; assay: Agonist activity at TLR4 in human PBMC cells assessed as induction of TNFalpha release incubated for 20 hrs by ELISA; assay type: cell-based
[9] = Aqueous stability of the compound assessed as drug degradation at 2 to 8 degreeC and measured upto 12 months by RP-HPLC analysis; assay type: physicochemical; details: buffer, 8760 h
Toll-like receptor 4 [10] = target: T1, Toll-like receptor 4; assay: Agonist activity at TLR4 in human PBMC cells assessed as induction of MIP-1beta release incubated for 20 hrs by ELISA; assay type: cell-based
Toll-like receptor 4 [11] = target: T1, Toll-like receptor 4; assay: Agonist activity at TLR4 in human PBMC cells assessed as induction of IL-1beta release incubated for 20 hrs by ELISA; assay type: cell-based
Mus musculus [12] = assay: Immuno-adjuvant activity in H3N2-split A/Victoria/210/2009 influenza virus-immunized BALB/c mouse model assessed as increase in influenza specific serum IgG2a titer level at 0.001 to 0.1 ug,IM administered on day 0 and 14 and measured after 28 days by ELISA; assay type: functional, organism-based; details: dose 0.001-0.1 µg, time 28.0 day
Mus musculus [13] = assay: Immuno-adjuvant activity in H3N2-split A/Victoria/210/2009 influenza virus-immunized BALB/c mouse model assessed as increase in influenza specific serum IgG titer level at 0.001 to 0.1 ug,IM administered on day 0 and 14 and measured after 28 days by ELISA; assay type: functional, organism-based; details: dose 0.001-0.1 µg, time 28.0 day
[14] = Aqueous stability of the compound assessed as drug degradation at 40 degreeC and measured after 12 months by RP-HPLC analysis; assay type: physicochemical; details: aqueous solution, read-out: Drug degradation
[15] = Toxicity in H3N2-split A/Victoria/210/2009 influenza virus-immunized BALB/c mouse model assessed as reactogenicity at 0.001 to 0.1 ug,IM administered on day 0 and 14 and measured after 28 days; details: in vivo, 672 h, dose 0.001-0.1 µg, time 28 day
Mus musculus [16] = species on record: Mus musculus; assay: Immuno-adjuvant activity in H3N2-split A/Victoria/210/2009 influenza virus-immunized BALB/c mouse model assessed as increase in influenza specific serum IgG1 titer level at 0.001 to 0.1 ug,IM and measured after 14 days by ELISA; assay type: functional, organism-based; details: dose 0.001-0.1 µg, time 14.0 day
Mus musculus [17] = assay: Immuno-adjuvant activity in H3N2-split A/Victoria/210/2009 influenza virus-immunized BALB/c mouse model assessed as increase in influenza specific serum IgG1 titer level at 0.001 to 0.1 ug,IM administered on day 0 and 14 and measured after 28 days by ELISA; assay type: functional, organism-based; details: dose 0.001-0.1 µg, time 28.0 day
Mus musculus [18] = species on record: Mus musculus; assay: Immuno-adjuvant activity in H3N2-split A/Victoria/210/2009 influenza virus-immunized BALB/c mouse model assessed as increase in influenza specific serum IgG titer level at 0.001 to 0.1 ug,IM and measured after 14 days by ELISA; assay type: functional, organism-based; details: dose 0.001-0.1 µg, time 14.0 day
[19] = Toxicity in H3N2-split A/Victoria/210/2009 influenza virus-immunized BALB/c mouse model assessed as abnormality at 0.001 to 0.1 ug,IM administered on day 0 and 14 and measured after 28 days; details: in vivo, 672 h, dose 0.001-0.1 µg, time 28 day
Mus musculus [20] = species on record: Mus musculus; assay: Immuno-adjuvant activity in H3N2-split A/Victoria/210/2009 influenza virus-immunized BALB/c mouse model assessed as increase in influenza specific serum IgG2a titer level at 0.001 to 0.1 ug,IM and measured after 14 days by ELISA; assay type: functional, organism-based; details: dose 0.001-0.1 µg, time 14.0 day
[21] = Aqueous stability of the compound assessed as drug degradation at 2 to 8 degreeC and measured after 1 month by LC-MS analysis; assay type: physicochemical; details: buffer, 730 h; time 1 months
PBMC = assay: Cytotoxicity against human PBMC cells assessed as reduction in cell viability upto 10 ug/ml incubated for 18 to 24 hrs by PrestoBlue reagent based assay; assay type: toxicity; details: time 18-24 hrs, dose < 10 µg/ml

Row | Structure (SMILES) | Stability [1] | EC50 (Toll-like receptor 4 [2]) [nM] | EC50 (Toll-like receptor 4 [3]) [nM] | EC50 (Toll-like receptor 4 [5]) [nM] | EC50 (Toll-like receptor 4 [6]) [nM] | EC50 (Toll-like receptor 4 [7]) [nM] | EC50 (Toll-like receptor 4 [8]) [nM] | Stability [9] | EC50 (Toll-like receptor 4 [10]) [nM] | EC50 (Toll-like receptor 4 [11]) [nM] | also measured
1 | CCCCCCCCCCC[C@H](CC(=O)NCCO[C@@H]1O[C@H](CO)[C@@H](OP(=O)(O)O)[C@@H](NC(=O)C[C@@H](CCCCCCCCCCC)OC(=O)CCCCCCCCC)[C@H]1NC(=O)C[C@@H](CCCCCCCCCCC)OC(=O)CCCCCCCCC)OC(=O)CCCCCCCCC.CCN(CC)CC | Stable | 91.9 | 0.37 | 1.65 | 3.68 | 0.26 | 28 | Stable | 1.61 | 8.77 | Stability ([4]; buffer, 8760 h): Stable
2 | CCCCCCCCCCC[C@H](CC(=O)NCCO[C@@H]1O[C@H](CO)[C@@H](OS(=O)(=O)O)[C@@H](NC(=O)C[C@@H](CCCCCCCCCCC)OC(=O)CCCCCCCCC)[C@H]1NC(=O)C[C@@H](CCCCCCCCCCC)OC(=O)CCCCCCCCC)OC(=O)CCCCCCCCC.CCN(CC)CC | Stable | 449 | 2.64 | 39.5 | 7.01 | 0.31 | 116 | Stable | 2.87 | 20.4 | Activity (Mus musculus [12]): Active; degraded at 8760 h ([4]; aqueous solution, read-out: Drug degradation): 8%; Activity (Mus musculus [13]): Active; degraded at 8760 h [14]: < 10%; Activity [15]: Non-Toxic; Activity (Mus musculus [16]): Dose-Dependent Effect; Activity (Mus musculus [17]): Active; Activity (Mus musculus [18]): Dose-Dependent Effect; Activity [19]: Non-Toxic; Activity (Mus musculus [20]): Dose-Dependent Effect
3 | CCCCCCCCCCC[C@H](CC(=O)NCCO[C@@H]1O[C@H](CO)[C@@H](OP(=O)(O)O)[C@H](OC(=O)C[C@@H](CCCCCCCCCCC)OC(=O)CCCCCCCCC)[C@H]1NC(=O)C[C@@H](CCCCCCCCCCC)OC(=O)CCCCCCCCC)OC(=O)CCCCCCCCC |  | 173 | 0.43 | 6.75 | 1.26 | 0.48 | 53.7 |  | 1.94 | 2.62 | Stability [21]: Stable
4 | CCCCCCCCCCC[C@H](CC(=O)N[C@H]1[C@H](OC[C@H](NC(=O)C[C@@H](CCCCCCCCCCC)OC(=O)CCCCCCCCC)C(=O)O)O[C@H](CO)[C@@H](OP(=O)(O)O)[C@@H]1OC(=O)C[C@@H](CCCCCCCCCCC)OC(=O)CCCCCCCCC)OC(=O)CCCCCCCCC |  |  |  |  |  |  |  |  |  |  | Activity (PBMC): Non-Toxic
